Data on 22 compounds can be found in ChEMBL document CHEMBL5236550, “Small molecule selenium-containing compounds: Recent development and therapeutic applications” (Eur J Med Chem, 2021).

For one experiment, the system named is WM-115. Put plainly: Anticancer activity against human WM-115 cells assessed as cell growth inhibition incubated for 72 hrs by MTT assay. It counts as functional. Background: Tetrazolium assays rely on reduction of a dye to a coloured formazan, in cell work by metabolically active cells.
In the next experiment the test system is LNCaP C4-2. Put plainly: Anticancer activity against human LNCaP C4-2 cells assessed as cell growth inhibition incubated for 24 hrs by MTT assay. In kind it is functional, cell-based. Conditions: LNCaP C4-2, 24 h.
A further experiment concerns LNCaP. In words: Anticancer activity against human LNCaP cells assessed as cell growth inhibition incubated for 1.5 hrs by MTT assay. It counts as functional, cell-based.
Experiment [1] has as its system Candida albicans. In words: Antifungal activity against Candida albicans ATC90028 assessed as zone of inhibition. It counts as functional.
In experiment [2] the test system is Candida albicans. Put plainly: Antifungal activity against Candida albicans ATC90028 assessed as […] growth inhibition. It counts as functional.
Another experiment has as its system Trypanosoma cruzi. Put plainly: Antibacterial activity against Trypanosoma cruzi Dm28c assessed as inhibition of bacterial growth incubated for 72 hrs by microplate reader analysis. It counts as functional, organism-based.
The next experiment concerns SH-SY5Y. In words: Anticancer activity against human SH-SY5Y cells assessed as cell viability incubated for 24 hrs by MTT assay relative to control. In kind it is functional.
In another experiment the test system is Human alphaherpesvirus 1. Put plainly: Antiviral activity against Herpes simplex virus 1infected in A549 cells assessed as viral growth inhibition incubated for 1 hrs. In kind it is functional.
Experiment [3] concerns Encephalomyocarditis virus. Put plainly: Antiviral activity against Encephalomyocarditis virus infected in A549 cells assessed as viral growth inhibition incubated for 1 hrs. It counts as functional, organism-based. Particulars: Cardiovirus A, A549, 1 h.
The next experiment has as its system K562. In words: Anticancer activity against human K562 cells assessed as cell growth inhibition incubated for 48 hrs by MTT assay. In kind it is functional, cell-based. Particulars: K562, 48 h.
Experiment [4] has as its system HeLa. In words: Anticancer activity against human HeLa cells assessed as cell growth inhibition incubated for 48 hrs by MTT assay. In kind it is functional, cell-based.
The test system of a further experiment is LS174T. In words: Anticancer activity against human LS174T cells assessed as cell growth inhibition incubated for 48 hrs by MTT assay. In kind it is functional, cell-based.
In a further experiment the test system is MDA-MB-361. In words: Anticancer activity against human MDA-MB-361 cells assessed as cell growth inhibition incubated for 48 hrs by MTT assay. In kind it is functional, cell-based. Particulars: MDA-MB-361, 48 h.
Experiment [5] has as its system HeLa. Put plainly: Anticancer activity against human HeLa cells assessed as cell growth inhibition incubated for 48 hrs. In kind it is functional, cell-based.
For experiment [6], the system named is MCF7. In words: Anticancer activity against human MCF7 cells assessed as cell growth inhibition measured upto 72 hrs by MTT assay. Particulars: MCF7, 72 h. In kind it is functional, cell-based.
The subject of experiment [7] is PC-3. In words: Anticancer activity against human PC-3 cells assessed as cell growth inhibition measured upto 72 hrs by MTT assay. It counts as functional, cell-based. Particulars: PC-3, 72 h.
A further experiment relates to BGC-823. Put plainly: Anticancer activity against human BGC-823 cells assessed as cell growth inhibition measured upto 72 hrs by MTT assay. It counts as functional, cell-based. Conditions: BGC-823, 72 h.
The subject of another experiment is Caco-2. In words: Anticancer activity against human Caco-2 cells assessed as cell growth inhibition measured upto 72 hrs by MTT assay. It counts as functional, cell-based. Conditions: Caco-2, 72 h.
Another experiment has as its system Pichia kudriavzevii. In words: Antifungal activity against Candida krusei assessed as fungal growth inhibition incubated for 24 to 48 hrs by microdilution method. Particulars: time 24-48 hrs. In kind it is functional. For orientation: Dilution methods test growth across graded concentrations, often in twofold steps.
In experiment [8] the test system is MCF7. In words: Anticancer activity against human MCF7 cells assessed as cell growth incubation incubated for 72 hrs by MTT assay. It counts as functional, cell-based. Particulars: MCF7, 72 h.
The subject of experiment [9] is PC-3. In words: Anticancer activity against human PC-3 cells assessed as cell growth incubation incubated for 72 hrs by MTT assay. It counts as functional, cell-based. Conditions: PC-3, 72 h.
A short description of experiment [10]: Anticancer activity against human PMNL assessed as cell growth inhibition incubated for 5 mins by luminescence reader analysis. In kind it is functional, cell-based.
Experiment [11] is described as follows: Anticancer activity against human PMNL assessed as cell growth inhibition. It counts as functional, cell-based.

≈ marks a conversion by molar mass, not a printed value.

As for `N#C[Se]CCCCCC(=O)Nc1ccccc1`, in the experiment with WM-115, the IC5 worked out at 0.8 µM.

In the case of `N#C[Se]Cc1ccc(C[Se]C#N)cc1`, the IC50 (in general, the midpoint of a concentration-inhibition curve) with LNCaP C4-2 was 7.6 µM; with LNCaP it was 7 µM.

For `Cc1ccc(C(=O)C[C@@H](c2ccc(Cl)cc2)[C@@H]2CCCc3[se]nnc32)cc1`, in the experiment on Candida albicans [1], the “inhibition zone (IZ)” value was found to be 17 mm. For the same compound, the MIC in the experiment on Candida albicans [2] came out at 12.5 µg/mL (≈ 28.2 µM).

Turning to `O=C(C[C@@H](c1ccc(Cl)cc1)[C@@H]1CCCc2[se]nnc21)c1ccc(Cl)cc1`, in the experiment with Candida albicans [1], the “inhibition zone (IZ)” value worked out at 15 mm. Moreover, in the experiment with Candida albicans [2], the MIC is 12.5 µg/mL (≈ 26.9 µM).

As for `NC(=[Se])NN=C(c1cccc(Br)c1)c1cccc(Br)c1`, the IC50 in the experiment on Trypanosoma cruzi worked out at 1.2 µM.

With `C=CCn1[se]c2ccccc2c1=O`, in the experiment on SH-SY5Y, the Activity is recorded as 86%.

Turning to `O=c1c2ccccc2[se]n1Cc1ccccc1`, the MIC with Human alphaherpesvirus 1 stood at 2 µg/mL (≈ 6.94 µM). Also, the IC50 in experiment [3] was 6 µg/mL (≈ 20.8 µM).

With `NC(=[Se])N/N=C/c1cccc2cccnc12`, the half-maximal inhibitory concentration (IC50) came out at 4 µM in the experiment on K562; 9.2 µM in the experiment with HeLa [4]; 14.4 µM in the experiment on LS174T; 9.2 µM in the experiment on MDA-MB-361; 6.6 µM in the experiment with HeLa [5].

Turning to `N#C[Se]CCCNC(=O)c1ccccc1Nc1cccc(C(F)(F)F)c1`, the IC50 in the experiment on MCF7 [6], with PC-3 [7], with BGC-823 and with Caco-2 was 1.9 µM in each case.

Regarding `O=c1c2ccccc2[se]n1-c1ccccn1`, in the experiment on SH-SY5Y, the Activity was determined as 84%.

Regarding `COc1ccc(-c2c[se]c(NN=C3CCSCC3)n2)cc1`, the MIC with Pichia kudriavzevii stood at 3.91 µg/mL (≈ 10.7 µM).

`Brc1ccc(-c2c[se]c(NN=C3CCSCC3)n2)cc1`: the MIC in the experiment on Pichia kudriavzevii turned out to be 3.91 µg/mL (≈ 9.42 µM).

Take `O=C(O)C[Se]C(=O)Cc1ccccc1`: the 50% inhibitory concentration (IC50) is 0.006 µM in the experiment with MCF7 [8] and 2.9 µM in the experiment on PC-3 [9].

Consider `[Se]=C(c1ccccc1)N1CCCCC1`, for which the IC50 in experiment [10] was found to be 11.3 µM.

With `N#Cc1ccc(C(=O)[Se]CC(=O)O)cc1`, the IC50 in the experiment on PC-3 [9] amounted to 10 µM.

Regarding `CC(=O)n1[se]c2ccccc2c1=O`, the MIC in the experiment with Human alphaherpesvirus 1 stood at 4 µg/mL (≈ 16.7 µM). In experiment [3], the IC50 came to 6 µg/mL (≈ 25 µM).

Take `O=C(O)C[Se]C(=O)c1cccnc1Cl`: the IC50 came to 0.003 µM with MCF7 [8] and 10 µM in the experiment on PC-3 [9].

In the case of `O=C(O)C[Se]C(=O)c1ccccc1`, the figures for the IC50 in the experiment with MCF7 [8] and with PC-3 [9] were 0.09 µM and 6.8 µM, respectively.

Consider `COc1cc(OC)cc(C(=O)[Se]CC(=O)O)c1`, for which, in the experiment on PC-3 [9], the IC50 is 4 µM.

On to `FC(F)(F)c1ccc(-c2c[se]c(NN=C3CCSCC3)n2)cc1`, for which, in the experiment on Pichia kudriavzevii, the MIC was determined as 0.98 µg/mL (≈ 2.42 µM).

As to `CCCC/C(=N\NC(N)=[Se])c1ccc(Cl)c(Cl)c1`, the IC50 in the experiment on Trypanosoma cruzi was 1.2 µM.

As to `NC(=[Se])N1CCCC1`, in experiment [11], the IC50 came to 6.5 µM.
